In publication PMC8923309, “Permeability evaluation of gemcitabine-CPP6 conjugates in Caco-2 cells” (ADMET & DMPK, 2020):
Numbered stars: 1 amine (or outer) side, 2 acyl side, 3 side chain; on linkers, the order of the positions; unused ones are H or OH. Ends that are not written are not given here. Peptide text beside a SMILES is read from it. * marks the point of attachment. X1 = O=c1nc(N*)ccn1[C@@H]1O[C@H](CO)[C@@H](O)C1(F)F; Suc = O=C(CCC(=O)[*:2])[*:1]

Key:
[1] = test system: Caco-2 monolayer; experiment: Transport across Caco-2 monolayer (permeability assay); details: HPLC-UV; for sum of the CPP absorbed from the apical side and found in the basolateral chamber at the end of the experiment: 60 μM apical in HBSS pH 7.4, 37 °C, remainder retained in cells or degraded; for percentage of amount applied apically recovered in the basolateral compartment at 120 min / sum of the CPP absorbed from the apical side and found in the basolateral chamber at the end of the experiment: 120 min
Procedure: (§1) A monolayer of Caco-2 cells was established in a 12-well plate [11]. […] Firstly, filters were pre-wet with 0.1 mL of culture medium for 2 minutes. Cells were seeded in the apical side (0.5 mL of cells per well, cell density of 4.0 x 10^5 cells/mL). The basolateral compartment was filled with 1.5 mL of culture medium and plates were incubated for 6 h (5 % CO2 humidified atmosphere at 37 °C). Then, to remove non-adherent cells and reduce the risk of multilayer formation, the medium in the apical side was removed and replaced with fresh medium. Cells were maintained for 29 days, replacing the culture medium from both compartments every other day.
(§2) All the solutions used were pre-warmed to 37 °C. Culture medium was replaced with fresh medium 24 h prior the beginning of the experiment. Next, this culture medium was removed first from the basolateral and then from the apical compartment. The apical compartment was carefully washed and then filled with 0.5 mL of Hank’s Balanced Salt Solution (HBSS, pH 7.4) and the basolateral compartment was also filled with 1.5 mL of HBSS. […] All tested compounds were prepared in HBBS (60 μM) and added to the apical compartment. Throughout this assay, the final volume was 0.4 mL in the apical compartment and 1.2 mL in the basolateral chamber. At t = 0 min, 0.45 mL of the donor solution was added to the apical compartment and a sample (0.05 mL) was immediately taken. The plate was incubated (lid-covered) at 37 °C under gentle shaking (190 rpm). Every 30 min for the next 2 h, a sample of 0.6 mL was taken from the basolateral compartment and replaced with the same volume of HBSS.
(§3) The concentrations of the evaluated compound in the basolateral and apical compartments were determined by high-performance liquid chromatography (HPLC) (VWR International LCC, LaChrom Ultra, Pennsylvania, USA). Elution was performed with a variable gradient of acetonitrile (ACN) in water containing 0.05 % trifluoroacetic acid (TFA), at a 0.7 mL/min flow and detection at variable wavelength (243 nm for gemcitabine and 220 nm for peptides and conjugates).

[2] = test system: Caco-2 cells; experiment: MTT cytotoxicity assay (cell growth inhibition); assay type: cell-based; details: Homo sapiens, 72 h incubation, 0.1-100000 μM, absorbance 570 nm, triplicate
Procedure: Human colon adenocarcinoma cell line Caco-2 (passage 25-47, kindly provided by the Department of Biomedicine of the Faculty of Medicine of University of Porto, and previously acquired via ATCC) was routinely maintained in Dulbecco’s Modified Eagle’s Medium (DMEM) supplemented with 10 % fetal bovine serum (FBS), L-glutamine and antibiotics penicillin and streptomycin. Cells were cultured at 37 °C in a 5 % CO2 humidified atmosphere. Culturing medium was replaced every 2-3 days and cell subculture was conducted once a week by trypsinization (0.25 % trypsin-EDTA wt/vol, 5, min, 37, °C).
The cell growth inhibitory activity of gemcitabine in Caco-2 cells was assessed with the MTT assay. Briefly, a growth curve was traced to determine the best cell density for the assay. […] Finally, MTT solution was removed, DMSO (100 μL per well) was added to solubilize the formazan crystals formed by viable cells and absorbance was measured at 570 nm in an automated microplate reader (Sinergy HT, Biotek Instruments Inc, Vermont, USA). […]
Gemcitabine cytotoxicity results were compared with the untreated control (mean of values was set to 100 %) and expressed as mean ± SEM. The statistical significance between different gemcitabine concentrations was analyzed in GraphPad Prism 7 (San Diego, EUA) using one-way ANOVA (p<0.05).

[3] = set-up: method as in PMID 16807468; details: administered intravenously; rapid deamination by cytidine deaminase in serum; cited from earlier work
Excerpt: Gemcitabine (Gem, dFdC or 2′,2′-difluoro-2′-deoxycytidine, Scheme 1) is a cytotoxic nucleoside analogue used as a chemotherapeutic drug.

[4] = test system: Caco-2 monolayer
Procedure: as §1, §2, §3

[5] = Caco-2 monolayer (29 days, Transwell COL PTFE 0.4 μm), apical to basolateral, 60 μM in HBSS pH 7.4, 37 °C, 190 rpm

percentage of amount applied apically recovered in the basolateral compartment at 120 min [1, 5] | sum of the CPP absorbed from the apical side and found in the basolateral chamber at the end of the experiment ([1]; Caco-2 monolayer) [%] | Compound | also measured
40% | 84 | KLPVMW-NH2 [CPP6-2] | 
18% |  | Nc1ccn([C@@H]2O[C@H](CO)[C@@H](O)C2(F)F)c(=O)n1 [Gemcitabine, 2′,2′-difluoro-2′-deoxycytidine] | IC50 [2]: 52.4 µM; half-life [3]: 8 to 17 min; percentage found in the basolateral side after 30 minutes ([1]; Caco-2 monolayer (29 days, Transwell COL PTFE 0.4 μm), apical to basolateral, 60 μM in HBSS pH 7.4, 37 °C, 190 rpm, 30 min): 3%; additional percentage of drug crossing the membrane from 90 min (plateau) until 120 min ([1]; Caco-2 monolayer, apical to basolateral, 60 μM in HBSS pH 7.4, 37 °C, between 90 and 120 min): 1%
33% | 50 | WKLPVM-NH2 [CPP6-1] | 
37% | 75 | WVPTLK [CPP6-3] | 

Compound | percentage of amount applied apically recovered in the basolateral compartment at 120 min [1, 5] | sum of the CPP absorbed from the apical side and found in the basolateral chamber at the end of the experiment ([1]; Caco-2 monolayer) [%] | also measured
CSCC[C@H](NC(=O)[C@@H](NC(=O)[C@@H]1CCCN1C(=O)[C@H](CC(C)C)NC(=O)[C@H](CCCCN)NC(=O)CCC(=O)Nc1ccn([C@@H]2O[C@H](CO)[C@@H](O)C2(F)F)c(=O)n1)C(C)C)C(=O)N[C@@H](Cc1c[nH]c2ccccc12)C(N)=O [Gem-CPP6-2] ({X1-Suc}-KLPVMW-NH2) | Approximately 31% |  | extent of permeation relative to Gem-CPP6-1 and Gem-CPP6-3 conjugates [4]: about 3 fold
CSCC[C@H](NC(=O)[C@@H](NC(=O)[C@@H]1CCCN1C(=O)[C@H](CC(C)C)NC(=O)[C@H](CCCCN)NC(=O)[C@H](Cc1c[nH]c2ccccc12)NC(=O)CCC(=O)Nc1ccn([C@@H]2O[C@H](CO)[C@@H](O)C2(F)F)c(=O)n1)C(C)C)C(N)=O [Gem-CPP6-1] ({X1-Suc}-WKLPVM-NH2) | 9% |  | 
